Experiments:
[1] = system: transdifferentiating ELC (TuDC-ELC); assay: Matrigel tube formation assay of TuDC-ELC; assay type: cell-based, human
Text: We have recently developed a model for an alternative pathway of tumor angiogenesis. […] These endothelial-like cells (ELC) can transdifferentiate from tumor-associated dendritic cells under specific culture conditions (11). Briefly, monocytes are elutriated from leukapheresis products of healthy human blood donors and cultured in the presence of granulocyte-macrophage-colony stimulating factor (GM-CSF) and interleukin 4 (IL-4) to stimulate the differentiation of dendritic cells (DC). In addition, cells are treated with a cocktail specifically released by tumor cells (M-CSF, IL.6 and lactate, Gottfried et al., manuscript submitted) to promote the outgrowth of tumor-associated dendritic cells (TuDC).
These TuDC-ELC acquire the phenotype of endothelial cells (FactorVIII related Ag, vWF) while they lose monocytic (CD14) and dendritic cell markers (CD1a). […] In addition, they are able to form tube-like structures in Matrigel™, an in vitro assay of angiogenesis.
The Matrigel™ assay is one of the most popular and widely used in vitro angiogenesis assays (22). […]
By the help of a complimentary software from the NIH (Image J, http://rsb.info.nih.gov/ij/), we are able to quantify these effects, the total length of tubes and the area of the photograph are assessed, the microvascular density (MVD) is then given in total length/area [pix-1].

[2] = system: human umbilical vene (HUVEC) endothelial cells; assay: Matrigel tube formation assay of HUVEC; assay type: cell-based; conditions: single addition, 10 μg/mL, 7 days, FIG. 1A
Description: (§1) The Matrigel™ assay is one of the most popular and widely used in vitro angiogenesis assays (22). Matrigel™ is a semisolid synthetic mixture of extracellular matrix proteins which simulate the matrix that physiologically exist beneath the endothelial cell wall of a blood vessel. When the cells of question are seeded onto this matrix in microscopic chamber slides, they are activated to form tubular structures in 3-7 days, but only in the case that they have an endothelial phenotype. Therefore, this assay is suitable to show the potential capacity of cells to give rise to a tumor vasculature.
(§2) TuDC-ELC and mature, differentiated endothelial cells, [human umbilical vene (HUVEC) or microvascular endothelial cells (HMEC) as “stable” controls] were incubated in the presence or absence of oligotide or Defibrotide (10 μg/mL each) for 7 days.

[3] = system: microvascular endothelial cells (HMEC); assay: Matrigel tube formation assay of HMEC; assay type: cell-based, human; conditions: single addition, 10 μg/mL, 7 days, FIG. 1A
Description: as §1, §2

[4] = system: rat aorta endothelial cells; assay: Aortic ring assay: sprouting of rat aorta endothelial cells in Matrigel; assay type: cell-based; conditions: applied on a daily basis, FIG. 2
[5] = system: human microvascular endothelial cells; assay: In vitro angiogenesis assay: microvascular endothelial cells vascularizing through a layer of dermal fibroblasts; assay type: cell-based
Description: The aortic ring assay investigates macrovascular endothelial cells. But often, the tumor vasculature consists of microvascular endothelial cells. Therefore, a third in vitro angiogenesis assay was performed on the basis of microvascular endothelial cells vascularizing through a layer of dermal fibroblasts after 9-11 days of culture. These vessel-like structures can subsequently be visualized by staining for CD31 and vWF.

human gastric carcinoma = assay: Dorsal skin chamber assay, human gastric carcinoma mouse model (Xenograft system); assay type: in vivo; conditions: treated vs control tumors; first data
Text: We are currently performing a dorsal skin chamber assay (14) that investigates the effect of defibrotide in a highly vascularized human gastric carcinoma mouse model (Xenograft system). […] This set of experiments will be reproduced in due time.

[6] = system: activated p70S6 kinase (p-p70S6); assay: Western Blot analyses of activated p70S6 kinase; assay type: cell-based; conditions: preliminary evidence
serum VEGF = assay: Serum VEGF levels in patients after allogeneic stem cell transplantation; assay type: in vivo, human; conditions: cohort of 17 treated patients after allogeneic SCT

defibrotide
tube formation of transdifferentiating ELC (TuDC-ELC) in Matrigel ([1]; 10 μg/mL, 7 days, clinical and subclinical concentrations): can inhibit tube formation
microvascular density (MVD) of TuDC-ELC, total length/area ([1]; Image J quantification, p=0.02 TTEST, FIG. 1B): significantly (p=0.02, TTEST) downregulates MVD
tube formation potential of HUVEC [2]: not affected
tube formation potential of HMEC [3]: not affected
prevention of sprouting of rat aorta endothelial cells in Matrigel [4]: ~100%
angiogenesis of human microvascular endothelial cells ([5]; daily application, 9-11 days of culture, FIGS. 3A and B): can also block angiogenesis
most effective concentration for blocking angiogenesis ([5]; human microvascular endothelial cells, FIGS. 3A and B): around 10 μg/mL
angiogenesis of human microvascular endothelial cells ([5]; single application): could not significantly block angiogenesis
microvascular density (MVD) of tumors (human gastric carcinoma): lower than that of control tumors
effect on activated p70S6 kinase (p-p70S6) [6]: downregulating effect
serum VEGF levels (serum VEGF): striking decline
